Test results taken from ChEMBL document CHEMBL1697731, “Cheminformatics analysis of assertions mined from literature that describe drug-induced liver injury in different species” (Chem Res Toxicol, 2010).

Experiments:
Hepatotoxicity [1] = assay: Literature-mined compound from Fourches et al multi-species drug-induced liver injury (DILI) dataset, effect in non-rodents
Hepatotoxicity [2] = assay: Literature-mined compound from Fourches et al multi-species drug-induced liver injury (DILI) dataset, effect in humans; conditions: human
Hepatotoxicity [3] = assay: Literature-mined compound from Fourches et al multi-species drug-induced liver injury (DILI) dataset, effect in rodents; conditions: rodentia

SMILES	Hepatotoxicity (Hepatotoxicity [1])	Hepatotoxicity (Hepatotoxicity [2])	Hepatotoxicity (Hepatotoxicity [3])	Hepatotoxicity (Hepatotoxicity [1]; Liver)	Hepatotoxicity (Hepatotoxicity [2]; Liver)	Hepatotoxicity (Hepatotoxicity [3]; Liver)
CO[C@H]1/C=C/O[C@@]2(C)Oc3c(C)c(O)c4c(O)c(cc(O)c4c3C2=O)NC(=O)/C(C)=C\C=C\[C@H](C)[C@H](O)[C@@H](C)[C@@H](O)[C@@H](C)[C@H](OC(C)=O)[C@@H]1C [RIFAMYCIN]	no drug-induced liver injury reported	drug-induced liver injury reported	drug-induced liver injury reported	–	–	–
Nc1nc2ccc(OC(F)(F)F)cc2s1 [RILUZOLE]	no drug-induced liver injury reported	drug-induced liver injury reported	no drug-induced liver injury reported	–	–	–
Cc1c(C(=O)NN2CCCCC2)nn(-c2ccc(Cl)cc2Cl)c1-c1ccc(Cl)cc1 [RIMONABANT]	no drug-induced liver injury reported	no drug-induced liver injury reported	drug-induced liver injury reported	–	–	–
Cc1nc2n(c(=O)c1CCN1CCC(c3noc4cc(F)ccc34)CC1)CCCC2 [RISPERIDONE]	no drug-induced liver injury reported	drug-induced liver injury reported	no drug-induced liver injury reported	–	–	–
CC(NCCc1ccc(O)cc1)C(O)c1ccc(O)cc1.Cl (stereo not drawn) [RITODRINE HYDROCHLORIDE]	drug-induced liver injury reported	no drug-induced liver injury reported	no drug-induced liver injury reported	–	–	–
CC(C)c1nc(CN(C)C(=O)N[C@H](C(=O)N[C@@H](Cc2ccccc2)C[C@H](O)[C@H](Cc2ccccc2)NC(=O)OCc2cncs2)C(C)C)cs1 [RITONAVIR]	no drug-induced liver injury reported	drug-induced liver injury reported	drug-induced liver injury reported	–	–	–
CS(=O)(=O)c1ccc(C2=C(c3ccccc3)C(=O)OC2)cc1 [ROFECOXIB]	no drug-induced liver injury reported	drug-induced liver injury reported	drug-induced liver injury reported	–	–	–
CN(C)[C@@H]1C(O)=C(C(=O)NCN2CCCC2)C(=O)[C@@]2(O)C(O)=C3C(=O)c4c(O)cccc4[C@@](C)(O)[C@H]3C[C@@H]12 [ROLITETRACYCLINE]	no drug-induced liver injury reported	no drug-induced liver injury reported	drug-induced liver injury reported	–	–	–
O=C([O-])c1c(Cl)c(Cl)c(Cl)c(Cl)c1-c1c2cc(I)c(=O)c(I)c-2oc2c(I)c([O-])c(I)cc12.[Na+].[Na+] [ROSE BENGAL SODIUM]	no drug-induced liver injury reported	no drug-induced liver injury reported	drug-induced liver injury reported	–	–	–
CN(CCOc1ccc(CC2SC(=O)NC2=O)cc1)c1ccccn1 (stereo not drawn) [ROSIGLITAZONE]	no drug-induced liver injury reported	drug-induced liver injury reported	drug-induced liver injury reported	–	–	–
CC(C)c1nc(N(C)S(C)(=O)=O)nc(-c2ccc(F)cc2)c1/C=C/[C@@H](O)C[C@@H](O)CC(=O)O [ROSUVASTATIN]	no drug-induced liver injury reported	no drug-induced liver injury reported	drug-induced liver injury reported	–	–	–
CC[C@H]1OC(=O)[C@H](C)[C@@H](O[C@H]2C[C@@](C)(OC)[C@@H](O)[C@H](C)O2)[C@H](C)[C@@H](O[C@@H]2O[C@H](C)C[C@H](N(C)C)[C@H]2O)[C@](C)(O)C[C@@H](C)/C(=N\OCOCCOC)[C@H](C)[C@@H](O)[C@]1(C)O [ROXITHROMYCIN]	no drug-induced liver injury reported	drug-induced liver injury reported	drug-induced liver injury reported	–	–	–
CC[C@@]1(O)C(=O)OCc2c1cc1n(c2=O)Cc2cc3c([N+](=O)[O-])cccc3nc2-1 [RUBITECAN]	no drug-induced liver injury reported	drug-induced liver injury reported	no drug-induced liver injury reported	–	–	–
NC(=O)c1ccccc1O [SALICYLAMIDE]	no drug-induced liver injury reported	drug-induced liver injury reported	drug-induced liver injury reported	–	–	–
O=C(O)c1ccccc1O [SALICYLIC ACID]	–	–	–	no drug-induced liver injury reported	no drug-induced liver injury reported	drug-induced liver injury reported
C#CCN(C)[C@H](C)Cc1ccccc1 [SELEGILINE]	no drug-induced liver injury reported	drug-induced liver injury reported	no drug-induced liver injury reported	–	–	–
C[Se]CC[C@H](N)C(=O)O [SELENOMETHIONINE]	drug-induced liver injury reported	no drug-induced liver injury reported	drug-induced liver injury reported	–	–	–
Cn1cnc2c(F)c(Nc3ccc(Br)cc3Cl)c(C(=O)NOCCO)cc21 [SELUMETINIB]	no drug-induced liver injury reported	no drug-induced liver injury reported	drug-induced liver injury reported	–	–	–

SMILES	Hepatotoxicity (Hepatotoxicity [1])	Hepatotoxicity (Hepatotoxicity [2])	Hepatotoxicity (Hepatotoxicity [3])	Hepatotoxicity (Hepatotoxicity [1]; Liver)	Hepatotoxicity (Hepatotoxicity [2]; Liver)	Hepatotoxicity (Hepatotoxicity [3]; Liver)
Cc1cc(C)c(/C=C2\C(=O)Nc3ccccc32)[nH]1 [SEMAXANIB]	no drug-induced liver injury reported	drug-induced liver injury reported	drug-induced liver injury reported	–	–	–
C=C1/C(=C\C=C2/CCC[C@]3(C)[C@@H]([C@H](C)/C=C/C=C/C(O)(CC)CC)CC[C@@H]23)C[C@@H](O)C[C@@H]1O [SEOCALCITOL]	no drug-induced liver injury reported	drug-induced liver injury reported	no drug-induced liver injury reported	–	–	–
CN[C@H]1CC[C@@H](c2ccc(Cl)c(Cl)c2)c2ccccc21 [SERTRALINE]	–	–	–	no drug-induced liver injury reported	drug-induced liver injury reported	drug-induced liver injury reported
FCOC(C(F)(F)F)C(F)(F)F [SEVOFLURANE]	no drug-induced liver injury reported	drug-induced liver injury reported	drug-induced liver injury reported	–	–	–
CC(C)CC(N(C)C)C1(c2ccc(Cl)cc2)CCC1 (stereo not drawn) [SIBUTRAMINE]	no drug-induced liver injury reported	drug-induced liver injury reported	no drug-induced liver injury reported	–	–	–
COc1cc(C2Oc3cc([C@H]4Oc5cc(O)cc(O)c5C(=O)[C@@H]4O)ccc3OC2CO)ccc1O (stereo partly drawn) [SILIBININ]	no drug-induced liver injury reported	drug-induced liver injury reported	drug-induced liver injury reported	–	–	–
CO[C@H]1C[C@@H]2CC[C@@H](C)[C@@](O)(O2)C(=O)C(=O)N2CCCC[C@H]2C(=O)O[C@H]([C@H](C)C[C@@H]2CC[C@@H](O)[C@H](OC)C2)CC(=O)[C@H](C)/C=C(\C)[C@@H](O)[C@@H](OC)C(=O)[C@H](C)C[C@H](C)/C=C/C=C/C=C/1C [SIROLIMUS]	no drug-induced liver injury reported	drug-induced liver injury reported	drug-induced liver injury reported	–	–	–
Cc1cc2c(cc1CC(=O)c1sccc1S(=O)(=O)Nc1onc(C)c1Cl)OCO2 [SITAXENTAN]	no drug-induced liver injury reported	drug-induced liver injury reported	no drug-induced liver injury reported	–	–	–
CC(=O)[O-].[Na+] [SODIUM ACETATE]	–	–	–	no drug-induced liver injury reported	no drug-induced liver injury reported	drug-induced liver injury reported
O=C([O-])c1ccccc1.[Na+] [SODIUM BENZOATE]	no drug-induced liver injury reported	no drug-induced liver injury reported	drug-induced liver injury reported	–	–	–
O=C([O-])O.[Na+] [SODIUM BICARBONATE]	–	–	–	drug-induced liver injury reported	no drug-induced liver injury reported	drug-induced liver injury reported
O=C([O-])CCCc1ccccc1.[Na+] [SODIUM PHENYLBUTYRATE]	no drug-induced liver injury reported	drug-induced liver injury reported	no drug-induced liver injury reported	–	–	–
O=S(=O)([O-])Oc1ccc(C(c2ccc(OS(=O)(=O)[O-])cc2)c2ccccn2)cc1.[Na+].[Na+] [SODIUM PICOSULFATE]	no drug-induced liver injury reported	drug-induced liver injury reported	no drug-induced liver injury reported	–	–	–
CCC(=O)[O-].[Na+] [SODIUM PROPIONATE]	no drug-induced liver injury reported	no drug-induced liver injury reported	drug-induced liver injury reported	–	–	–
CNC(=O)c1cc(Oc2ccc(NC(=O)Nc3ccc(Cl)c(C(F)(F)F)c3)cc2)ccn1.Cc1ccc(S(=O)(=O)O)cc1 [SORAFENIB TOSYLATE]	no drug-induced liver injury reported	drug-induced liver injury reported	no drug-induced liver injury reported	–	–	–
OC[C@@H](O)[C@@H](O)[C@H](O)[C@@H](O)CO [SORBITOL]	no drug-induced liver injury reported	drug-induced liver injury reported	drug-induced liver injury reported	–	–	–
CC(C)NCC(O)c1ccc(NS(C)(=O)=O)cc1 (stereo not drawn) [SOTALOL]	no drug-induced liver injury reported	no drug-induced liver injury reported	drug-induced liver injury reported	–	–	–
Oc1c2ccccc2c2c3c(cccc13)N=N2 [SP-600125]	no drug-induced liver injury reported	drug-induced liver injury reported	drug-induced liver injury reported	–	–	–
